Laboratory results taken from article PMC6100073, “Activation of Anthracene Endoperoxides in Leishmania and Impairment of Mitochondrial Functions” (Molecules : A Journal of Synthetic Chemistry and Natural …, 2018).
Like-named read-outs stand apart in the source and are kept apart here.

Legend:
J774 macrophages = assay: Resazurin viability assay in J774 macrophages; format: cell-based; conditions: Mus musculus, read-out: IC50 (µM) Mean ± SD J774
Method: The murine macrophage cell line J774A.1 (mouse, ATCC, TIB-67™) was cultivated in Dulbecco’s Modified Eagle Medium (DMEM) (high glucose, 1.5 g/L NaHCO3) supplemented with 25,000 IU/L penicillin, 25 mg/L streptomycin, and 10% FCS (heat-inactivated) in 50 mL TubeSpin bioreactors. The tubes were kept in an incubator at 37 °C and 5% CO2 on a roller culture apparatus (5 rpm). The cells were passaged twice a week, diluting them in a ratio of 1:10. The macrophages were used until passage 30. To determine the cell count, the cell suspension was resuspended and diluted 1:2 with PBS. After fixation of the cells by mixing the cell suspension 1:1 with a formaldehyde solution (2%, v/v), aliquots of the resulting suspension were transferred into a standard Neubauer chamber (VWR, Austria) and counted manually using a light microscope (Motic BA310, Austria) at a magnification of 400×.
LtP (2 × 10^6 cells/mL) in a mixture of YEM and PBS (1:1, v/v) containing 25,000 U/L penicillin, 25 mg/L streptomycin, and 6 µM hemin (YEM/PBS) were prepared. Aliquots of 200 µL of this suspension were distributed in 96-well plates. Control rows containing YEM/PBS (no activity) and with untreated LtP (100% activity) were also loaded on the plate. To the wells of third rows, compounds (leading to a final vehicle concentration of max. 2% dimethyl sulfoxide (DMSO) in the wells) were added. Subsequently, five 1:5 serial dilution steps were performed. The plates were incubated at 26 °C for 48 h. Following the incubation, 50 µL of a resazurin solution in PBS were added to each well, giving a final concentration of 20 µM. After 4 h of incubation, the fluorescence was measured at 560 nm excitation and 590 nm emission using a plate reader (Perkin Elmer Enspire, Germany). The resazurin assays with J774 cells were performed in analogy to the LtP resazurin assays. Aliquots of a J774 cell suspension in DMEM supplemented with 25,000 U/L penicillin, 25 mg/L streptomycin, and 10% FCS (heat-inactivated), giving a final cell concentration of 10^5 cells/mL, were distributed in the wells of the 96-well microplates. The cells were incubated for 24 h (37 °C, 5% CO2) to allow attachment. Then the medium was discarded and non-adherent cells were removed with 200 µL PBS per well. After the addition of DMEM, the compounds were added, and a serial dilution was performed. Control rows with DMEM (no activity) and with untreated J774 cells (100% activity) were also included. […] Then the addition of resazurin and the measurement of fluorescence were carried out in analogy to the viability assays performed in LtP.
Calculations were carried out using Microsoft Excel (Microsoft). The graphs were created using Origin 6.1 (OriginLab Corporation, Northampton, MA, USA). The half maximal inhibitory concentrations (IC50) were determined from non-linear concentration–response curves using a four-parameter logistic model and expressed as the mean ± standard deviation (SD). Statistically significant differences of p <0.05 were identified using Students t-test.

LtP [1] = assay: EPR spin trapping (DMPO): activation of AcEPs by LtP; format: cell-based, Leishmania tarentolae; conditions: 500 µM compound, 2 × 10^9 LtP/mL, 40 mM DMPO, 15 min, no added iron
Method: To detect the radicals derived from AcEPs in LtP, EPR experiments were performed using DMPO as spin trap. Aliquots of the cell broth were transferred into Sarstedt tubes that were centrifuged (20 °C, 1800× g, 10 min), and the supernatants were discarded. Then the cell pellets were resuspended in PBS and centrifuged again. After removal of the supernatants, the cell pellets were resuspended in a mixture of PBS containing glucose (15 mM), giving a final cell number of 2 × 10^9 LtP/mL. Aliquots (150 µL) were incubated in 1.5 mL Eppendorf tubes with aeration holes. The cells were incubated with DMPO (40 mM) for 5 min at 26 °C, and after addition of 500 µM of the respective substance (Asc, AcEP1117, AcEP1118, AcEP1129, AcEP1130, Ac or AQ), the samples were incubated for additional 15 min at 26 °C under constant agitation (agitation speed: 0.3 s^−1). Control samples containing LtP, LtP and DMSO (1.27%, v/v), or PBS/glucose alone were incubated with 40 mM DMPO under the same conditions. Cell samples containing DMPO that were treated with Asc served as positive control. Samples treated with Ac or AQ were used as negative controls. Subsequently, 50 µL of the samples were aspirated into glass capillaries and transferred in the MD5 resonator of the EPR spectrometer. The samples were measured immediately using the following instrument settings: microwave frequency 9.684 GHz; microwave power 20 mW, modulation frequency 100 kHz; modulation amplitude 2 G; time constant 0.164 s; center field 3449 G; scan rate 71 G/min; sweep width 100 G; scan time 84 s; attenuation 8.93 × 10^5; and scans 3.

LtP [2] = assay: EPR (CMH oxidation): superoxide formation in LtP; format: cell-based, Leishmania tarentolae; conditions: 20 µM AA or 100 µM other compounds, 500 × 10^6 LtP/mL, 400 µM CMH, DFO, DTPA, 5 min, 25 °C
Method: To measure superoxide radical (O2^•−) formation induced by AcEPs in LtP, EPR spectroscopy was used. An aliquot of the cell broth was transferred into an Eppendorf tube that was centrifuged (Hettich Universal 16, 20 °C, 2000× g, 10 min). The supernatant was discarded, the cell pellet was resuspended in PBS and centrifuged again. After removal of the supernatant, the cell pellet was resuspended in a mixture of PBS, 15 mM glucose (PBS/Glu), DFO (100 µM), and DTPA (25 µM). […] The cell suspension was aliquoted. CMH was added as detection agent leading to a final concentration of 400 µM. After 5 min of incubation at 25 °C, the respective substance was added resulting in final concentrations of 20 µM antimycin A (AA) or 100 µM of AcEP1117, AcEP1118, AcEP1129, AcEP1130, Ac, and AQ. Samples containing LtP and CMH were used as negative control. Samples containing PBS/Glu and CMH were used as negative control as well. After 5 min of incubation at 25 °C with the respective substance, aliquots of 17 µL of the cell suspensions were aspirated into a PTFE tube (outer diameter 0.7 mm). The tube was transferred into the MD5 resonator of the EPR spectrometer. Immediately, the measurement was started using the following parameters: microwave frequency 9.684 GHz; microwave power 20 mW, modulation frequency 100 kHz; modulation amplitude 1 G; time constant 0.82 s; center field 3449 G; scan rate 14 G/min; sweep width 100 G; scan time 419 s; attenuation 2.52 × 10^4; and scans 5.

[3] = resazurin assay, endpoint at 48 h, 10^5 J774/mL

## O=C1c2ccccc2C(=O)c2ccccc21 [AQ, anthraquinone, reference compound]
J774 macrophages; [3]
  IC50: 117 ± 24.3 µM
LtP [1]
  DMPO spin adduct formation in LtP (EPR): neither Ac nor AQ resulted in detectable DMPO spin adducts
LtP [2]
  CMH oxidation (superoxide radical formation) in LtP: did not trigger additional CMH oxidation in LtP

## c1ccc2cc3ccccc3cc2c1 [Ac, anthracene]
J774 macrophages; J774, 48 h
  IC50: > 400 µM
LtP [1]
  DMPO spin adduct formation in LtP (EPR): neither Ac nor AQ resulted in detectable DMPO spin adducts
LtP [2]
  CMH oxidation (superoxide radical formation) in LtP: did not trigger additional CMH oxidation in LtP

## c1ccc2c(c1)C1OOC2c2ccccc21 [AcEP1117, 9,10-dihydro-9,10-epidioxidoanthracene]
J774 macrophages; [3]
  IC50: 43.8 ± 36.1 µM
LtP [1]
  DMPO spin adduct formation in LtP (EPR): no spin adducts were observed
LtP [2]
  CMH oxidation (superoxide radical formation) in LtP: failed to cause any enhanced oxidation of CMH

## CC12OOC(C)(c3ccccc31)c1ccccc12 [AcEP1118, 9,10-dimethyl-9,10-dihydro-9,10-epidioxidoanthracene]
J774 macrophages; [3]
  IC50: 4.34 ± 1.91 µM
LtP [1]
  DMPO spin adduct formation in LtP (EPR): a moderate intensity DMPO spin adduct was observed
LtP [2]
  CMH oxidation (superoxide radical formation) in LtP: failed to cause any enhanced oxidation of CMH

## CC12OOC(c3ccccc31)c1ccccc12 [AcEP1129, 9-methyl-9,10-dihydro-9,10-epidioxidoanthracene]
J774 macrophages; [3]
  IC50: 0.9 ± 0.28 µM
LtP [1]
  DMPO spin adduct formation in LtP (EPR): high intensity EPR spectra of spin adducts were observed
LtP [2]
  CMH oxidation (superoxide radical formation) in LtP: an increased CMH oxidation rate occurred

## CCc1ccc2c(c1)C1OOC2c2ccccc21 (stereo not shown) [AcEP1130, 2-ethyl-9,10-dihydro-9,10-epidioxidoanthracene]
J774 macrophages; [3]
  IC50: 7.82 ± 0.47 µM
LtP [1]
  DMPO spin adduct formation in LtP (EPR): no spin adducts were observed
LtP [2]
  CMH oxidation (superoxide radical formation) in LtP: an increased CMH oxidation rate occurred

## N=C(N)c1ccc(OCCCCCOc2ccc(C(=N)N)cc2)cc1 [Pen, pentamidine, reference compound]
J774 macrophages; [3]
  IC50: 14.4 ± 6.48 µM
